Data published in US12162850B2, “Formulations” (Betagenon AB, priority 2019, dated 2024).

Experiment: Single dose oral pharmacokinetic studies in rabbits
Type: in vivo
Conditions: male, New Zealand White, rabbit, plasma; for AUC(0-t): 25 mg/kg, 25 mg/kg b.w. oral single dose

## O=C(Nc1nc(=O)n(Cc2ccc(Cl)cc2)s1)c1ccc(Cl)cc1.[Na] [Compound 2, 4-chloro-N-[2-[(4-chlorophenyl)methyl]-3-oxo-1,2,4-thiadiazol-5-yl]benzamide sodium salt]
Enteric coated capsule with MgO, rabbit plasma (Example 9)
  AUC(0-t): 1700 ± 248 µg·h/mL
Enteric coated capsule with mannitol, rabbit plasma (Example 10)
  AUC(0-t): 1470 ± 78.7 µg·h/mL
53 mg/kg, enteric coated capsule with MgO, 53 mg/kg b.w. (equivalent to 50 mg/kg Compound 1) oral single dose, rabbit plasma (Example 11)
  Tmax: 48 ± 24 h
